Results: US8772499B2, “TRPV3 modulators” (AbbVie Inc., priority 2011, dated 2014)
Read-outs that look alike come from different tables or passages of the source.

Tests used:
human TRPV3 = target: T1, human TRPV3 (Homo sapiens, UniProt Q8NET8); test: In vitro antagonism of recombinant human TRPV3 activation (FLIPR Tetra calcium assay); format: cell-based; conditions: HEK293 cells stably expressing human TRPV3, agonist 2-APB at 80 μM
T1 construct: expressed in transfected cells
T1 sequence (Q8NET8 1-790): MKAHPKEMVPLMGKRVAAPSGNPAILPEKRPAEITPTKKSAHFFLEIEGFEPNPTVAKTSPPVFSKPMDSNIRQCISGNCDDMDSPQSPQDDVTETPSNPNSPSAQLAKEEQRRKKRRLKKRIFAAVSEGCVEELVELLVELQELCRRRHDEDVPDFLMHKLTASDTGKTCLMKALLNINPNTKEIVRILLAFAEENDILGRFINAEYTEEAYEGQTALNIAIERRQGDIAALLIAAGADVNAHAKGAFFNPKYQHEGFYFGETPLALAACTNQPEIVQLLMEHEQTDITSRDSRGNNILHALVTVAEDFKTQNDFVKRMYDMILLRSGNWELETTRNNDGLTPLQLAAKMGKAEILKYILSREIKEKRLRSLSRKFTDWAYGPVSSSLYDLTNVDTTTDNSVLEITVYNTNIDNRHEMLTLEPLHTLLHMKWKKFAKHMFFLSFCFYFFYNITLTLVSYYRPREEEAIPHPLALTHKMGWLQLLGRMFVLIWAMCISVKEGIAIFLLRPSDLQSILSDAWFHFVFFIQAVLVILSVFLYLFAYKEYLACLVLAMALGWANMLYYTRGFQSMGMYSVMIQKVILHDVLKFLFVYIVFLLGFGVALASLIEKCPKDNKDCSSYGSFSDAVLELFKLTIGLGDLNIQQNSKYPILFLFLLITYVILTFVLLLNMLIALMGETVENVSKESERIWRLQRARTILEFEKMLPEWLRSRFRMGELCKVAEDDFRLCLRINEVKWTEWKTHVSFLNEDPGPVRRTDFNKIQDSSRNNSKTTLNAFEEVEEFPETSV
Procedure, shortened: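 HEK293 cells stably expressing human TRPV3, loaded with Calcium-4 dye for 90–120 min, received compound in DPBS, then 80 μM 2-APB (EC80) 3 min later. Max-minus-min fluorescence expressed as % of 2-APB response without antagonist; IC50 values mostly averages of n≥2 runs.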

[1] = In vitro rat microsomal stability assay; format: in vitro ADME, rat (Sprague-Dawley); conditions: Sprague-Dawley, rat, microsomes, 0.5 h, 0.5 μM, pH 7.4
Procedure, shortened: (§1)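 Test compounds were incubated at 37° C. with Sprague-Dawley rat liver microsomes or with human liver microsomes. NADPH was supplied as cofactor and was also added to the time-zero plates.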

[2] = In vitro human microsomal stability assay; format: in vitro ADME; conditions: human, microsomes, 0.5 h, 0.5 μM, pH 7.4
Procedure, shortened: as §1

[3] = actual measured value shown parenthetically, in most cases average of at least two runs, read-out: IC50
[4] = reported range, read-out: IC50 (range class)

| Structure (SMILES) | IC50 (human TRPV3; [3]) | RAT MICROSOMAL STABILITY (% REMAINING AFTER 30 MINUTES) [1] | HUMAN MICROSOMAL STABILITY (% REMAINING AFTER 30 MINUTES) [2] | IC50 (human TRPV3; [4]) |
| --- | --- | --- | --- | --- |
| Cn1c(C2(C(O)c3ccccn3)CCC2)nc2ccccc21 (stereo not shown) [Example 275, [1-(1-methyl-1H-benzimidazol-2-yl)cyclobutyl](pyridin-2-yl)methanol] | 19 µM | 5.7% | 67% | – |
| OC1CC(c2ccc(F)c(Cl)c2)([C@H](O)c2ccccn2)C1 (stereo partly drawn) [Example 276, 3-(3-chloro-4-fluorophenyl)-3-[(S)-hydroxy(pyridin-2-yl)methyl]-cyclobutanol] | 0.2 µM | 73% | 72% | – |
| O=C1CC(c2cc(C(F)(F)F)ccn2)([C@H](O)c2ccccn2)C1 [Example 277, 3-[(S)-hydroxy(pyridin-2-yl)methyl]-3-[4-(trifluoromethyl)pyridin-2-yl]-cyclobutanone] | 1.97 µM | >85% | >85% | – |
| O=C1CC(c2cc(C(F)(F)F)ccn2)([C@@H](O)c2ccccn2)C1 [Example 278, 3-[(R)-hydroxy(pyridin-2-yl)methyl]-3-[4-(trifluoromethyl)pyridin-2-yl]-cyclobutanone] | 6.6 µM | >85% | 83% | – |
| CC(C)(C)OC(=O)N1CCC(C2(C(O)c3ccccn3)CCC2)CC1 (stereo not shown) [Example 279, tert-butyl 4-{1-[hydroxy(pyridin-2-yl)methyl]cyclobutyl}piperidine-1-carboxylate] | 7.5 µM | <0.01% | 22% | – |
| OC(c1ccccn1)C1(C2CCC(C(F)(F)F)CC2)CCC1 (stereo not shown) [Example 280, pyridin-2-yl{1-[4-(trifluoromethyl)cyclohexyl]cyclobutyl}methanol] | 1.95 µM | <0.01% | 9.0% | – |
| OC(c1ccccn1)C1(C2CCCOC2)CCC1 (stereo not shown) [Example 281, pyridin-2-yl[1-(tetrahydro-2H-pyran-3-yl)cyclobutyl]methanol] | 7.69 µM | 0.054% | >85% | – |
| OC1CC(c2cc(C(F)(F)F)ccn2)(C(O)c2ccccn2)C1 [Example 282, cis-3-[(S)-hydroxy(pyridin-2-yl)methyl]-3-[4-(trifluoromethyl)pyridin-2-yl]cyclobutanol] | 0.74 µM | >85% | >85% | – |
| OC(c1ccccn1)C1(C2CCOC2)CCC1 (stereo not shown) [Example 284, pyridin-2-yl[1-(tetrahydrofuran-3-yl)cyclobutyl]methanol] | > 20 µM | 16% | >85% | > 20 µM |
| CC1(O)CC(c2cc(C(F)(F)F)ccn2)(C(O)c2ccccn2)C1 (stereo not shown) [Example 286] | 1.47 µM | 70% | >85% | – |
| COc1ccc(C(O)C2(c3ccc(Cl)c(Cl)c3)CCC2)nc1 (stereo not shown) [Example 287, [1-(3,4-dichlorophenyl)cyclobutyl](5-methoxypyridin-2-yl)methanol] | > 20 µM | <0.01% | 15% | > 20 µM |
| CC(=O)O[C@H](c1ccccn1)C1(c2ccc(OC(F)(F)F)cc2)CCC1 [Example 288, (S)-pyridin-2-yl{1-[4-(trifluoromethoxy)phenyl]cyclobutyl}methyl acetate] | 14.6 µM | <0.01% | <0.01% | – |
| COc1ccnc(C(O)C2(c3ccc(Cl)c(Cl)c3)CCC2)c1 (stereo not shown) [Example 289, [1-(3,4-dichlorophenyl)cyclobutyl](4-methoxypyridin-2-yl)methanol] | > 20 µM | <0.01% | 4.2% | > 20 µM |
| Cc1cc(C(F)(F)F)cc(C2([C@@H](O)c3ccccn3)CC(=O)C2)n1 [Example 291, 3-[(R)-hydroxy(pyridin-2-yl)methyl]-3-[6-methyl-4-(trifluoromethyl)-pyridin-2-yl]cyclobutanone] | 17.3 µM | 53% | >85% | – |
| OC(c1ccccn1)C1(c2nc3ccc(Cl)cc3s2)CCC1 (stereo not shown) [Example 292, [1-(6-chloro-1,3-benzothiazol-2-yl)cyclobutyl](pyridin-2-yl)methanol] | 0.56 µM | 5.4% | 19% | – |
| O=C1CC(c2cc(C(F)(F)F)ccn2)(C(O)c2ccccn2)C1 (stereo not shown) [Example 293, 3-[hydroxy(pyridin-2-yl)methyl]-3-[4-(trifluoromethyl)pyridin-2-yl]-cyclobutanone] | > 20 µM | 69% | 78% | > 20 µM |
| OC1CC(c2cc(C(F)(F)F)ccn2)([C@H](O)c2ccccn2)C1 (stereo partly drawn) [Example 294, 3-[(S)-hydroxy(pyridin-2-yl)methyl]-3-[4-(trifluoromethyl)pyridin-2-yl]-cyclobutanol] | > 20 µM | >85% | >85% | > 20 µM |
| O=C1CC(c2cncc(C(F)(F)F)c2)(C(O)c2ccccn2)C1 (stereo not shown) [Example 295, 3-[hydroxy(pyridin-2-yl)methyl]-3-[5-(trifluoromethyl)pyridin-3-yl]-cyclobutanone] | > 20 µM | 8.2% | 70% | > 20 µM |
| O=C1CC(c2cncc(C(F)(F)F)c2)([C@H](O)c2ccccn2)C1 [Example 296, 3-[(S)-hydroxy(pyridin-2-yl)methyl]-3-[5-(trifluoromethyl)pyridin-3-yl]-cyclobutanone] | > 20 µM | 12% | 67% | > 20 µM |
| OC(c1ccccn1)C1(c2ccnc(C(F)(F)F)c2)CC2(C1)OCCO2 (stereo not shown) [Example 297, pyridin-2-yl{2-[2-(trifluoromethyl)pyridin-4-yl]-5,8-dioxaspiro[3.4]oct-2-yl}methanol] | > 20 µM | 2.0% | >85% | > 20 µM |
| O=C1CC(c2ccnc(C(F)(F)F)c2)(C(O)c2ccccn2)C1 (stereo not shown) [Example 298, 3-[hydroxy(pyridin-2-yl)methyl]-3-[2-(trifluoromethyl)pyridin-4-yl]-cyclobutanone] | > 20 µM | 59% | 80% | > 20 µM |
| O=C1CC(c2ccnc(C(F)(F)F)c2)([C@H](O)c2ccccn2)C1 [Example 299, 3-[(S)-hydroxy(pyridin-2-yl)methyl]-3-[2-(trifluoromethyl)pyridin-4-yl]-cyclobutanone] | > 20 µM | >85% | >85% | > 20 µM |
